According to US7422846B2, “Natural ligand for orphan G protein coupled receptor GPR86 and methods of use” (Euroscreen S.A, priority 2001, dated 2008):

What was measured:
[1] = molecular target: T1, human P2Y13 (GPR86) (Homo sapiens, UniProt Q9BPV8, T179M); assay: Antagonism of ADP-induced IP3 accumulation in human P2Y13-AG32 cells; format: cell-based; conditions: 10 min pre-incubation, then ADP 100 nM for 30 s; means±S.D. of three independent experiments
T1 construct: expressed in transfected cells; host or cells: 1321N1 astrocytoma clone AG32 (stably expressing Gα16 from pERAEQ2), G418-selected
T1 sequence (Q9BPV8 22-354 T179M): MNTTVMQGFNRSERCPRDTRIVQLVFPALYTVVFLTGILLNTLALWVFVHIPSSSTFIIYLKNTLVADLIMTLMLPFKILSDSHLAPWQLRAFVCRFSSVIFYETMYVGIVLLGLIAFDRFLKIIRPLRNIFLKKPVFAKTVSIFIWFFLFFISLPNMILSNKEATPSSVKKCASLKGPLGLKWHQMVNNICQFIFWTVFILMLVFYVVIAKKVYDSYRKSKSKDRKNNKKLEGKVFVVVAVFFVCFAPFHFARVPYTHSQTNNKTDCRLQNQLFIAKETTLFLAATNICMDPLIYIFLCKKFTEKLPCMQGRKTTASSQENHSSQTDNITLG
Procedure: Antagonist were tested on AG32 cells transfected with human GPR86. AG32 cells were seeded (200,000 cells per dish) on 35 mm (diameter) Petri dishes and labeled for 24 h with 5 μCi/ml [^3H]-myoinositol in inositol free DMEM containing 5% fetal calf serum, antibiotics, amphotericin, sodium pyruvate, and 400 μg/ml of G418. […] Prior to the stimulation, cells were pre-incubated for 10 min in presence of Reactive Blue 2 (RB-2), Suramine, PPADS or MRS-2179. The cells were then incubated in presence of ADP 100 nM for 30 s. The incubation was stopped by the addition of 1 ml of an ice-cold 3% perchloric acid solution. […] The data represent the mean±S.D. of triplicate experimental points obtained in one representative experiment of three.

[2] = system: 1321N1 cells expressing GPR86 receptor alone; conditions: nucleotides 100 μM for 30 s
Procedure: Cells of the invention, for example, 1321N1 cells, are labelled for 24 hours with 10 μCi/ml [^3H] inositol in inositol free DMEM containing 5% FCS, antibiotics, amphotericin, sodium pyruvate and 400 μg/ml G418. Cells are incubated for 2 h in Krebs-Ringer Hepes (KRH) buffer of the following composition (124 mM NaCl, 5 mM KCl, 1.25 mM MgSO4, 1.45 mM CaCl2, 1.25 mM KH2PO4, 25 mM Hepes (pH: 7.4) and 8 mM glucose). The cells are then challenged with various nucleotides for 30 s. The incubation is stopped by the addition of an ice cold 3% perchloric acid solution. IP are extracted and separated on Dowex columns as previously described (25). 2MeSATP and ATP solutions (1 mM) are treated at room temperature with 20 units/ml CPK and 10 Mm cp for 90 min to circumvent problems arising from the contamination and degradation of triphosphate nucleotide solutions.
The pool of G418-resistant clones was tested for its functional IP3 response to several nucleotides, according to the method described above. The cells were challenged by various nucleotides at a concentration of 100 μM for 30 s: ATP, ADP, UTP, UDP, ITP, IDP, TDP.

| Molecule | IC50 [1] [µM] | IP3 response [2] |
| --- | --- | --- |
| Reactive Blue 2 | 1.9 ± 0.1 | – |
| Cc1ccc(C(=O)Nc2ccc(S(=O)(=O)O)c3cc(S(=O)(=O)O)cc(S(=O)(=O)O)c23)cc1NC(=O)c1cccc(NC(=O)Nc2cccc(C(=O)Nc3cc(C(=O)Nc4ccc(S(=O)(=O)O)c5cc(S(=O)(=O)O)cc(S(=O)(=O)O)c45)ccc3C)c2)c1 [Suramine] | 2.3 ± 0.4 | – |
| NCCc1c[nH]cn1 [histamine] | – | strong IP3 response |
| CNc1ncnc2c1ncn2[C@H]1C[C@H](OP(=O)(O)O)[C@@H](COP(=O)(O)O)O1 [MRS-2179] | > 100 | – |
| Cc1nc(N=Nc2ccc(S(=O)(=O)O)cc2S(=O)(=O)O)c(COP(=O)(O)O)c(C=O)c1O [PPADS] | 11.7 ± 0.9 | – |
